{
  "source": "paper PMC3169616",
  "about": "“Unique Residues Involved in Activation of the Multitasking Protease/Chaperone HtrA from Chlamydia trachomatis” (PLoS ONE, 2011)",
  "key": {"CtHtrA [1]": {"target": "T1, CtHtrA (Chlamydia trachomatis serovar D, UniProt P18584)", "T1 construct": "His-tag; made in house; host or cells: E. coli BL21 (DE3), plasmid pETHtrA", "T1 sequence (P18584 17-497)": "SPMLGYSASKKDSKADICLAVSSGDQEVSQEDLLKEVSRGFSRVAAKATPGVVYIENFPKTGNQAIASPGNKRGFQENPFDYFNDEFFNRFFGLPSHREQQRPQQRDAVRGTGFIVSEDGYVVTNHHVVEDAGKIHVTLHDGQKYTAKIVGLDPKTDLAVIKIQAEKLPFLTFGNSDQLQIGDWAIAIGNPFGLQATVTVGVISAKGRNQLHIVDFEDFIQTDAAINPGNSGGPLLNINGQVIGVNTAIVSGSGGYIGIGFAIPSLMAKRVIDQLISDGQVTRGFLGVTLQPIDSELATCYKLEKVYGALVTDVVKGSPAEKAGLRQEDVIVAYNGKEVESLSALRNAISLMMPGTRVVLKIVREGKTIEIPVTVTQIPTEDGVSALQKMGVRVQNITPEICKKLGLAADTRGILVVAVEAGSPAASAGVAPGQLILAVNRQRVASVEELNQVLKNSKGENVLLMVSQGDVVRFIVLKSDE", "assay": "Activation of CtHtrA cleavage of Bcas1 substrate by added activator", "assay_type": "biochemical", "settings": "substrate Bcas1 (MCA-ENLHLPLPIIF-DNP), fluorimetric, 37°C", "experimental": "To determine if the addition of a second peptide to the protease assays could activate or increase CtHtrA proteolysis, two activator peptides were tested in the CtHtrA cleavage of the model ß-casein peptide substrate Bcas1. The first was based on the ß-casein C-terminal sequence (Act1: NH2-VLGPVRGPFPIIV-OH) and the second on insulin b chain C-terminal sequence (Act2: NH2-CGELGFFYTP-OH).\nFinally, in order to determine if the 24-mer (highest amount with MOMP protein, or Act1), or 12-mer, or both, corresponds to enhanced protease activity, the incubations of CtHtrA and these potential in vivo activators were used for protease assays with the Bcas1 substrate (Fig. 6). […] The presence of the majority of CtHtrA as higher order oligomers correlated with an increased rate of proteolysis for CtHtrA, particularly when these oligomers were predominately 24-mers.\nThe purified recombinant protein was examined by Coomassie stained polyacrylamide gels and activity was checked using ß-casein cleavage assays prior to use in peptide assays. Briefly, this involved incubating 2 µg of the protease with 10 µg of ß-casein in 50 mM Tris pH 7.0, 20 mM MgCl2 for 2 h prior to examining the assays by SDS PAGE (ß-casein and protease only controls were always conducted). Protease assays using peptides were conducted using custom synthesised peptides (Mimotopes). […] Protease assays using pNA labelled peptides were conducted using the xMARK Microplate spectrophotometer (Bio-Rad) at 405 nm, incubated at 37°C, with a reading taken every 10 s for 30 min. The maximum slope over a minimum of 8 readings was used for the data analysis. […] The assays were excited at 340 nm and emission was detected at 405 nm with a gain of 1000, the assays were monitored every 20 s or at the minimum cycle time for up to 40 min. […] The assay results shown for the fluorescent compounds have been normalised for the amount of fluorescent emission detected using a standard curve of known concentrations of the MCA fluorophore under the identical assay conditions. […]"}, "CtHtrA [2]": {"target": "T1, CtHtrA", "assay": "MS and MS-MS analysis of peptide cleavage products", "assay_type": "biochemical", "settings": "data not shown", "experimental": "Bcas1 and Act1 peptides (150 µM concentration) digested with CtHtrA (71 µg) were analysed by online LC/MS/MS using a QStar Pulsar I (Applied Biosystems) in […] mode. Data acquired were converted into mzXML format using proteowizard (v2) and searched using ([…], the global proteome machine, ftp://ftp.thegpm.org/fasta/cRAP), against CtHtrA and Act1 and Bcas1 peptide sequences with an included decoy database of the reverse sequence for each protein. The search also included potential mass modifications accounting for the additional […] moieties on the N and C peptide termini, respectively. Matches with an expected ratio of <1 were considered identified. All raw data and mass spectra can be made available on request."}, "CtHtrA R373A/R299W": {"system": "CtHtrA R373A/R299W", "assay": "Oligomerisation assay, mutated protein", "assay_type": "biochemical, Chlamydia trachomatis", "settings": "R373A/R299W mutant, 10 mins incubation", "text": "This activation was very similar to that observed for CtHtrA, and was the only condition during which any of the mutated proteins oligomerised in a similar profile to CtHtrA.\nThe oligomerisation of HtrA into 12- and 24-mer complexes has been independently detected for E. coli HtrA (DegP). The oligomerisation of HtrA (DegP) was triggered by peptides from digested ß-casein [18]. Assays to detect whether CtHtrA and site directed mutant protein oligomerisation was triggered by substrates were conducted essentially as previously described (Merdanovic et al., 2010). Briefly, 2 mg/ml protein solutions in 100 mM sodium phosphate buffer pH 7.0 were pre-incubated to the required temperature. The ligands (activator peptide, or insulin) were added and at 10 min, and the proteins were fixed using 0.5% glutaraldehyde. Samples were fixed at room temperature for 2 min prior to addition of 1 M Tris pH 7.5 to remove any excess glutaraldehyde. Samples were incubated for another 10 min at room temperature prior to addition of SDS PAGE reducing loading buffer. The protein samples were examined on 3–8% TrisAcetate gradient polyacrylamide gels (Novex, Invitrogen) by silver staining. The proteins used in this study were not initially denatured by treatment with urea as, the refolding, formation of oligomers, and protease activity was never successfully detected with denatured CtHtrA. […]"}},
  "note": "“Also recorded” adds a separate entry of the source.",
  "data": [
    {"substance": "H-VLGPVRGPFPIIV-OH [Act1]", "values": [
      {"measurement": "effect of activator on rate of CtHtrA proteolysis of Bcas1", "setting": "CtHtrA [1]", "value": "greater ability of the two activators to increase the proteolysis rate; also recorded: increased proteolysis rate"},
      {"measurement": "cleavage of activator peptide by CtHtrA, MALDI MS MS", "setting": "CtHtrA [2]", "value": "No evidence of Act1 cleavage"},
      {"measurement": "oligomer formation induced by activator", "setting": "CtHtrA R373A/R299W", "value": "induced R373A/R299W 24-mer formation"}
    ]}
  ]
}
